According to patent publication US10307413B2, “Tetrahydro- and dihydro-isoquinoline PRMT5 inhibitors and uses thereof” (Epizyme, Inc., priority 2013, dated 2019):
Like-named read-outs stand apart in the source and are kept apart here.

How the values were obtained:
PRMT5/MEP50 = PRMT5/MEP50 (Homo sapiens (Human), UniProt O14744); assay: PRMT5 Biochemical Assay (PRMT5/MEP50 enzyme assay on peptide substrate, 3H-SAM Flashplate)
Excerpt: S-adenosylmethionine (SAM), S-adenosylhomocysteine (SAH), bicine, KCl, Tween20, dimethylsulfoxide (DMSO), bovine skin gelatin (BSG), and Tris(2-carboxyethyl)phosphine hydrochloride solution (TCEP) were purchased from Sigma-Aldrich at the highest level of purity possible. ^3H-SAM was purchase from American Radiolabeled Chemicals with a specific activity of 80 Ci/mmol. 384-well streptavidin Flashplates were purchased from PerkinElmer.
Peptide representative of human histone H4 residues 1-15 was synthesized with a C-terminal linker-affinity tag motif and a C-terminal amide cap by 21st Century Biochemicals.
The amplified genes were sublconed into pENTR/D/TEV (Life Technologies) and subsequently transferred by Gateway™ attL×attR recombination to pDEST8 baculovirus expression vector (Life Technologies).
Protein over-expression was accomplished by infecting exponentially growing Spodoptera frugiperda (SF9) cell culture at 1.2×10^6 cell/ml with a 5000 fold dilution of BIIC stock. Infections were carried out at 27° C. for 72 hours, harvested by centrifugation, and stored at −80° C. for purification.
Flag-PRMT5/6His-MeP50 was eluted with 300 mM Imidazole in the same buffer.
General Procedure for PRMT5/MEP50 Enzyme Assays on Peptide Substrates.
The assays were all performed in a buffer consisting of 20 mM Bicine (pH=7.6), 1 mM TCEP, 0.005% BSG, and 0.002% Tween20, prepared on the day of use. […] DMSO (1 ul) was added to Columns 11, 12, 23, 24, rows A-H for the maximum signal control and 1 ul of SAH, a known product and inhibitor of PRMT5/MEP50, was added to columns 11, 12, 23, 24, rows I-P for the minimum signal control. A cocktail (40 ul) containing the PRMT5/MEP50 enzyme and the peptide was added by Multidrop Combi (Thermo-Fisher). The compounds were allowed to incubate with PRMT5/MEP50 for 30 min at 25 degrees Celsius, then a cocktail (10 ul) containing ^3H-SAM was added to initiate the reaction (final volume=51 ul). […] The assays were stopped by the addition of non-radioactive SAM (10 ul) to a final concentration of 600 uM, which dilutes the ^3H-SAM to a level where its incorporation into the peptide substrate is no longer detectable. 50 ul of the reaction in the 384-well polypropylene plate was then transferred to a 384-well Flashplate and the biotinylated peptides were allowed to bind to the streptavidin surface for at least 1 hour before being washed three times with 0.1% Tween20 in a Biotek ELx405 plate washer. The plates were then read in a PerkinElmer TopCount plate reader to measure the quantity of ^3H-labeled peptide bound to the Flashplate surface, measured as disintegrations per minute (dpm) or alternatively, referred to as counts per minute (cpm).
[formula] [formula] Where dpm=disintegrations per minute, cmpd=signal in assay well, and min and max are the respective minimum and maximum signal controls.
[formula] [formula] Where top and bottom are the normally allowed to float, but may be fixed at 100 or 0 respectively in a 3-parameter fit. The Hill Coefficient normally allowed to float but may also be fixed at 1 in a 3-parameter fit. Y is the % inhibition and X is the compound concentration.

[1] = system: symmetric di-methyl arginine in Z-138 cells; assay: Z-138 Methylation Assay (In Cell Western for symmetric di-methyl arginine and DNA content); type: cell-based; settings: Homo sapiens, read-out: ICW EC50
In short: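 In-cell western: symmetric di-methyl arginine signal ratioed to DRAQ5 DNA content after 96 h compound exposure of Z-138 cells seeded at 50,000 cells/mL.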

Z-138 cell line = assay: Z-138 Proliferation Assay (Cell Titer Glo, 5 days); type: cell-based; settings: Homo sapiens, 120 h, Z-138 cells, 5 days, read-out: Proliferation EC50
In short: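 Viability via CellTiter-Glo luminescence (ATP) after 5-day incubation at 37 °C, 5% CO2. Compounds tested in triplicate, nine 3-fold steps, highest final concentration 20 μM in 0.2% DMSO; 50% inhibitory concentration by 4-parameter fit of normalized curves.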

Sequence of PRMT5/MEP50 (O14744 other isoform, or with tags, fused parts or gaps): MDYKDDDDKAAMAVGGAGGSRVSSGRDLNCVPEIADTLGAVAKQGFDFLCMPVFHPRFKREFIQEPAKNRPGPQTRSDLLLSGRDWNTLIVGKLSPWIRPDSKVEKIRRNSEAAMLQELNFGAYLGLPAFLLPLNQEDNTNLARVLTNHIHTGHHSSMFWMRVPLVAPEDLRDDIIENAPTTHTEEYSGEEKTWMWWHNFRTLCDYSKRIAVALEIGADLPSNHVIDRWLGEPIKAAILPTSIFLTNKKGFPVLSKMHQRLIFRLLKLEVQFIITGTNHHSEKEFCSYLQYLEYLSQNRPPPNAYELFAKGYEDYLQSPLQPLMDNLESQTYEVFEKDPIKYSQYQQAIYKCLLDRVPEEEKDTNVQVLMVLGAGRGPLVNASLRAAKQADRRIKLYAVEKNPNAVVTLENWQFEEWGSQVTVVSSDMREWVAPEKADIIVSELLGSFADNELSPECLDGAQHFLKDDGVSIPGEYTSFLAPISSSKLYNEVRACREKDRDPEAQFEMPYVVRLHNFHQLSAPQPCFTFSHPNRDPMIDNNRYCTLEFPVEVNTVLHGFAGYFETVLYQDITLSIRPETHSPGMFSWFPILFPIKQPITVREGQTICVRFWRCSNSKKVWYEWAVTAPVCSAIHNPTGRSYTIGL
Sequence of PRMT5/MEP50 (Q9BQA1 other isoform, or with tags, fused parts or gaps partner): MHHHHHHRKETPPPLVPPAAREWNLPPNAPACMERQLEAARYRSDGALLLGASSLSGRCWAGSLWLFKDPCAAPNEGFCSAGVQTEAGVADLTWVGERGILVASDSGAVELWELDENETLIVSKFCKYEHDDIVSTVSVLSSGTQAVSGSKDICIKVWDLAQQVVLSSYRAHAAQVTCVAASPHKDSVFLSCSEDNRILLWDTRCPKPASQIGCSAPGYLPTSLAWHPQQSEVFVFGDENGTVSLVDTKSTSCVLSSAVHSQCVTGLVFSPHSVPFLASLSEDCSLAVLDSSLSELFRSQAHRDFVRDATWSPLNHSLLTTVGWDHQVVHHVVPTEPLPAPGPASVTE

| SMILES | EC50 [1] [µM] | EC50 (Z-138 cell line) [µM] | also measured |
| --- | --- | --- | --- |
| CS(=O)(=O)Nc1ccccc1C(=O)NCC(O)CN1CCc2ccccc2C1 (stereo not shown) [Compound 27] |  |  | IC50 (PRMT5/MEP50): 1 to 10 µM |
| NS(=O)(=O)c1ccccc1C(=O)NCC(O)CN1CCc2ccccc2C1 (stereo not shown) [Compound 33] |  |  | IC50 (PRMT5/MEP50): 1 to 10 µM |
| O=C(NCC(O)CN1CCc2ccccc2C1)c1cccc(C(=O)N2CCOCC2)c1 (stereo not shown) [Compound 46, N-(3-(3,4-dihydroisoquinolin-2(1H)-yl)-2-hydroxypropyl)-3-(morpholine-4-carbonyl)benzamide] |  |  | IC50 (PRMT5/MEP50): 1 to 10 µM |
| CCN(c1cccc(C(=O)NCC(O)CN2CCc3ccccc3C2)c1)C1CCOCC1 (stereo not shown) [Compound 47] | 0.101 to 1 |  | IC50 (PRMT5/MEP50): 0.101 to 1 µM |
| O=C(NCC(O)CN1CCc2ccccc2C1)c1cccc(OC2CCOCC2)c1 (stereo not shown) [Compound 48] | 0.101 to 1 |  | IC50 (PRMT5/MEP50): 0.101 to 1 µM |
| CN(c1cccc(C(=O)NCC(O)CN2CCc3ccccc3C2)c1)C1CCOCC1 (stereo not shown) [Compound 49, N-(3-(3,4-dihydroisoquinolin-2(1H)-yl)-2-hydroxypropyl)-3-(methyl(tetrahydro-2H-pyran-4-yl)amino)benzamide] |  |  | IC50 (PRMT5/MEP50): 0.101 to 1 µM |
| O=C(NCC(O)CN1CCc2ccccc2C1)c1cccc(NC2COC2)c1 (stereo not shown) [Compound 50, N-(3-(3,4-dihydroisoquinolin-2(1H)-yl)-2-hydroxypropyl)-3-(oxetan-3-ylamino)benzamide] |  |  | IC50 (PRMT5/MEP50): 0.101 to 1 µM |
| O=C(NCC(O)CN1CCc2ccccc2C1)c1cccc(CN2CCOCC2)c1 (stereo not shown) [Compound 51, N-(3-(3,4-dihydroisoquinolin-2(1H)-yl)-2-hydroxypropyl)-3-(morpholinomethyl)benzamide] |  |  | IC50 (PRMT5/MEP50): 0.101 to 1 µM |
| CC(Nc1cccc(C(=O)NCC(O)CN2CCc3ccccc3C2)c1)C1CCOCC1 (stereo not shown) [Compound 52, N-(3-(3,4-dihydroisoquinolin-2(1H)-yl)-2-hydroxypropyl)-3-((1-(tetrahydro-2H-pyran-4-yl)ethyl)amino)benzamide] |  |  | IC50 (PRMT5/MEP50): 0.101 to 1 µM |
| CC1(C)CC(Nc2cccc(C(=O)NCC(O)CN3CCc4ccccc4C3)c2)CCO1 (stereo not shown) [Compound 53, N-(3-(3,4-dihydroisoquinolin-2(1H)-yl)-2-hydroxypropyl)-3-((2,2-dimethyltetrahydro-2H-pyran-4-yl)amino)benzamide] |  |  | IC50 (PRMT5/MEP50): 0.101 to 1 µM |
| COc1cc(NC2CCOCC2)cc(C(=O)NCC(O)CN2CCc3ccccc3C2)c1 (stereo not shown) [Compound 56] |  |  | IC50 (PRMT5/MEP50): 0.101 to 1 µM |
| O=C(NCC(O)CN1CCc2ccccc2C1)c1cc(NC2CCOCC2)ccc1F (stereo not shown) [Compound 57, N-(3-(3,4-dihydroisoquinolin-2(1H)-yl)-2-hydroxypropyl)-2-fluoro-5-((tetrahydro-2H-pyran-4-yl)amino)benzamide] |  |  | IC50 (PRMT5/MEP50): 0.101 to 1 µM |
| Cc1cnc(NC2CCOCC2)cc1C(=O)NC[C@H](O)CN1CCc2ccccc2C1 [Compound 307] | < 0.1 | 0.101 to 1 |  |
| Cc1cnc(NC2CCOC2)cc1C(=O)NC[C@H](O)CN1CCc2ccccc2C1 (stereo partly shown) [Compound 308] | 0.101 to 1 | 10 to 50 |  |
| Cn1nc(NC2CCOCC2)cc1C(=O)NCC(O)CN1CCc2ccccc2C1 (stereo not shown) [Compound 311] | < 0.1 | < 0.1 |  |
| Cn1nc(C(=O)NCC(O)CN2CCc3ccccc3C2)cc1NC1CCOCC1 (stereo not shown) [Compound 312] | 0.101 to 1 | 1 to 10 |  |
| CNCCNc1cc(C(=O)NC[C@H](O)CN2CCc3ccccc3C2)ccn1 [Compound 314] | < 0.1 | 10 to 50 |  |
| CC(=O)N(C)CCNc1cc(C(=O)NC[C@H](O)CN2CCc3ccccc3C2)ccn1 [Compound 315] | < 0.1 | 0.101 to 1 |  |
| O=C(NC[C@H](O)CN1CCc2ccccc2C1)c1ccnc(NCCNCC(F)(F)F)c1 [Compound 316] | < 0.1 | 1 to 10 |  |
| O=C(NC[C@H](O)CN1CCc2ccccc2C1)c1cnc2ccccc2c1 [Compound 317] | < 0.1 | 0.101 to 1 |  |
| O=C(NC[C@H](O)CN1CCc2ccccc2C1)c1ccc2cc(O)ccc2c1 [Compound 318] | 0.101 to 1 | 1 to 10 |  |
| O=C(NC[C@H](O)CN1CCc2ccccc2C1)c1nc2cc(Br)ccc2[nH]1 [Compound 319] | < 0.1 | 1 to 10 |  |
| NCCNc1cc(C(=O)NC[C@H](O)CN2CCc3ccccc3C2)ccn1 [Compound 320] | 0.101 to 1 | 1 to 10 |  |

| SMILES | EC50 [1] [µM] | EC50 (Z-138 cell line) [µM] | also measured |
| --- | --- | --- | --- |
| O=C(NC[C@H](O)CN1CCc2ccccc2C1)c1ccc(OC2CCN(CCO)CC2)cc1 [Compound 321] | < 0.1 | 0.101 to 1 |  |
| CC(C)(C)C(=O)N1CCC(Oc2ccc(C(=O)NC[C@H](O)CN3CCc4ccccc4C3)cc2)CC1 [Compound 322] | < 0.1 | 0.101 to 1 |  |
| O=C(NC[C@H](O)CN1CCc2ccccc2C1)c1ccnc(OC2CCOCC2)c1 [Compound 323] | < 0.1 | 0.101 to 1 |  |
| CN(c1cc(C(=O)NC[C@H](O)CN2CCc3ccccc3C2)ccn1)C1CCOCC1 [Compound 324] | < 0.1 | 0.101 to 1 |  |
| Cn1nccc1Nc1cc(C(=O)NC[C@H](O)CN2CCc3ccccc3C2)ccn1 [Compound 325] | < 0.1 | 0.101 to 1 |  |
| CC(C)(C)c1cc(Nc2cc(C(=O)NC[C@H](O)CN3CCc4ccccc4C3)ccn2)n[nH]1 [Compound 326] | < 0.1 | 0.101 to 1 |  |
| O=C(NC[C@H](O)CN1CCc2ccccc2C1)c1c(O)ccc2ccccc12 [Compound 327] | 0.101 to 1 | > 20 |  |
| O=C(NC[C@H](O)CN1CCc2ccccc2C1)c1ccc2c(c1O)NCCC2 [Compound 328] | > 1 | > 20 |  |
| COCCN1CCC(Oc2ccc(C(=O)NC[C@H](O)CN3CCc4ccccc4C3)cc2)CC1 [Compound 329] | < 0.1 | 0.101 to 1 |  |
| O=C(NC[C@H](O)CN1CCc2ccccc2C1)c1ccc(OC2CCN(Cc3ccccc3)CC2)cc1 [Compound 330] | < 0.1 | < 0.1 |  |
| O=C(NC[C@H](O)CN1CCc2ccccc2C1)c1ccc(OC2CCN(Cc3ccncc3)CC2)cc1 [Compound 331] | < 0.1 | < 0.1 |  |
| COc1cc(C(=O)NC[C@H](O)CN2CCc3ccccc3C2)cc(NC2CCC2)n1 [Compound 332] | < 0.1 | < 0.1 |  |
| CN(c1cc(C(=O)NC[C@H](O)CN2CCc3ccccc3C2)ccn1)C1CCC1 [Compound 333] | < 0.1 | 0.101 to 1 |  |
| O=C(NC[C@H](O)CN1CCc2ccccc2C1)c1ccnc(NC2CCCC2)c1 [Compound 334] | < 0.1 | < 0.1 |  |
| O=C(NC[C@H](O)CN1CCc2ccccc2C1)c1ccnc(NC2CCCCC2)c1 [Compound 335] | < 0.1 | < 0.1 |  |
| O=C(NC[C@@H](O)CN1CCc2ccccc2C1)c1cc(NC2COC2)ncn1 [Compound 336] | 0.101 to 1 | 10 to 50 |  |
| [2H]C1([2H])Cc2ccccc2C([2H])([2H])N1C[C@@H](O)CNC(=O)c1cc(NC2COC2)ncn1 [Compound 337] | < 0.1 | 0.101 to 1 |  |
| COc1c(NC2COC2)ncnc1C(=O)NC[C@H](O)CN1CCc2ccccc2C1 [Compound 338] |  |  | IC50 (PRMT5/MEP50): 1 to 10 µM |
| O=C(NC[C@H](O)CN1CCc2ccccc2C1)c1ccnc(Nc2ccncc2)c1 [Compound 412] |  |  | EC50 ([1]; In Cell Western methylation): < 0.1 µM; EC50 (Z-138 cell line; Cell Titer Glo): 0.101 to 1 µM |
| CC(NC(=O)c1cc(NC2COC2)ncn1)[C@H](O)CN1CCc2ccccc2C1 (stereo partly shown) [Compound 493] |  |  | IC50 (PRMT5/MEP50; PRMT5 biochemical assay): 1 to 10 µM; EC50 ([1]; In Cell Western methylation): > 1 µM |
| CC(=O)N1CCC(Nc2cc(C(=O)NC[C@@H](O)CN3CCc4ccccc4C3)ncn2)CC1 [Compound 687] |  |  | EC50 ([1]; In Cell Western methylation): < 0.1 µM; EC50 (Z-138 cell line; Cell Titer Glo): 0.101 to 1 µM |
| CC(=O)N1CC(Nc2cc(C(=O)NCC(N)CN3CCc4ccccc4C3)ncn2)C1 (stereo not shown) [Compound 699] |  |  | IC50 (PRMT5/MEP50; PRMT5 biochemical assay): 0.101 to 1 µM |
| CC(=O)N1CCC(Nc2cc(C(=O)NCC(N)CN3CCc4ccccc4C3)ncn2)CC1 (stereo not shown) [Compound 701] |  |  | IC50 (PRMT5/MEP50; PRMT5 biochemical assay): 0.101 to 1 µM |
